Legend:
HOP-62 = test: panel of 60 human tumor cell lines, growth inhibition (Non-Small Cell Lung Cancer)
TK-10 = test: panel of 60 human tumor cell lines, growth inhibition (Renal Cancer); settings: for Percent Growth: TK-10
ACHN = test: as above
NCI-H23 = test: panel of 60 human tumor cell lines, growth inhibition (Non-Small Cell Lung Cancer)
HCC-2998 = test: panel of 60 human tumor cell lines, growth inhibition (Colon Cancer); settings: for Percent Growth: HCC-2998
SK-OV-3 = test: panel of 60 human tumor cell lines, growth inhibition (Ovarian Cancer)
BT-549 = test: panel of 60 human tumor cell lines, growth inhibition (Breast Cancer)
NCI-H522 = test: panel of 60 human tumor cell lines, growth inhibition (Non-Small Cell Lung Cancer)
SF-295 = test: panel of 60 human tumor cell lines, growth inhibition (CNS Cancer)

C=C1C(=O)O[C@H]2[C@H]1CC/C(COC(=O)CCC(=O)NCc1ccc(Cl)nc1)=C\CC[C@@]1(C)O[C@@H]21 [JVM 96]
Percent Growth (HOP-62; HOP-62, Log10 Concentration −6.0): 98%
Percent Growth (HOP-62; HOP-62, Log10 Concentration −7.0): 93%
Percent Growth (HOP-62; HOP-62, Log10 Concentration −8.0): 95%
GI50 (HOP-62; Homo sapiens, HOP-62): 20.1 µM
CC50 (HOP-62; Homo sapiens, HOP-62, read-out: LC50): 95.2 µM
IC (TGI) (HOP-62; Homo sapiens, HOP-62, read-out: TGI): 43.7 µM
GI50 (TK-10; Homo sapiens, TK-10, TK-10): 3.83 µM
CC50 (TK-10; Homo sapiens, TK-10, read-out: LC50): 37.9 to 50 µM
IC (TGI) (TK-10; Homo sapiens, TK-10, read-out: TGI): 13.5 µM
Percent Growth (TK-10; Log10 Concentration −4.0): −99%
Percent Growth (TK-10; Log10 Concentration −5.0): 15%
Percent Growth (TK-10; Log10 Concentration −6.0): 99%
Percent Growth (TK-10; Log10 Concentration −7.0): 103%
Percent Growth (TK-10; Log10 Concentration −8.0): 102%
GI50 (ACHN; Homo sapiens): 4.45 µM
CC50 (ACHN; Homo sapiens, read-out: LC50): 51.9 µM
IC (TGI) (ACHN; Homo sapiens, read-out: TGI): 17.9 µM
Percent Growth (ACHN; Log10 Concentration −4.0): −81%
Percent Growth (ACHN; Log10 Concentration −5.0): 27%
Percent Growth (ACHN; Log10 Concentration −6.0): 92%
Percent Growth (ACHN; Log10 Concentration −7.0): 94%
Percent Growth (ACHN; Log10 Concentration −8.0): 98%
GI50 (NCI-H23; Homo sapiens, NCI-H23): 18.4 µM
CC50 (NCI-H23; Homo sapiens, NCI-H23, read-out: LC50): > 100 µM
IC (TGI) (NCI-H23; Homo sapiens, NCI-H23, read-out: TGI): 45.7 µM
Percent Growth (NCI-H23; NCI-H23, Log10 Concentration −4.0): −43%
Percent Growth (NCI-H23; NCI-H23, Log10 Concentration −5.0): 83%
Percent Growth (NCI-H23; NCI-H23, Log10 Concentration −6.0): 103%
Percent Growth (NCI-H23; NCI-H23, Log10 Concentration −7.0): 103%
Percent Growth (NCI-H23; NCI-H23, Log10 Concentration −8.0): 96%
Percent Growth (HCC-2998; Log10 Concentration −4.0): −90%
Percent Growth (HCC-2998; Log10 Concentration −5.0): 76%
Percent Growth (HCC-2998; Log10 Concentration −6.0): 108%
Percent Growth (HCC-2998; Log10 Concentration −7.0): 101%
Percent Growth (HCC-2998; Log10 Concentration −8.0): 99%
GI50 (HCC-2998; Homo sapiens, HCC 2998): 14.4 µM
CC50 (HCC-2998; Homo sapiens, HCC 2998, read-out: LC50): 57.3 µM
IC (TGI) (HCC-2998; Homo sapiens, HCC 2998, read-out: TGI): 28.7 µM
GI50 (SK-OV-3; Homo sapiens, SK-OV-3): 28 µM
CC50 (SK-OV-3; Homo sapiens, SK-OV-3, read-out: LC50): > 100 µM
IC (TGI) (SK-OV-3; Homo sapiens, SK-OV-3, read-out: TGI): 70.5 µM
Percent Growth (SK-OV-3; SK-OV-3, Log10 Concentration −4.0): −19%
Percent Growth (SK-OV-3; SK-OV-3, Log10 Concentration −5.0): 106%
Percent Growth (SK-OV-3; SK-OV-3, Log10 Concentration −6.0): 106%
Percent Growth (SK-OV-3; SK-OV-3, Log10 Concentration −7.0): 104%
Percent Growth (SK-OV-3; SK-OV-3, Log10 Concentration −8.0): 99%
Percent Growth (BT-549; BT-549, Log10 Concentration −4.0): −97%
Percent Growth (BT-549; BT-549, Log10 Concentration −5.0): 32%
Percent Growth (BT-549; BT-549, Log10 Concentration −6.0): 93%
Percent Growth (BT-549; BT-549, Log10 Concentration −7.0): 139%
Percent Growth (BT-549; BT-549, Log10 Concentration −8.0): 102%
GI50 (BT-549; Homo sapiens, BT-549): 5.14 µM
CC50 (BT-549; Homo sapiens, BT-549, read-out: LC50): 43.1 µM
IC (TGI) (BT-549; Homo sapiens, BT-549, read-out: TGI): 17.8 µM
GI50 (NCI-H522; Homo sapiens, NCI-H522): 1.6 µM
CC50 (NCI-H522; Homo sapiens, NCI-H522, read-out: LC50): 7.82 µM
IC (TGI) (NCI-H522; Homo sapiens, NCI-H522, read-out: TGI): 3.54 µM
Percent Growth (NCI-H522; NCI-H522, Log10 Concentration −4.0): −78%
Percent Growth (NCI-H522; NCI-H522, Log10 Concentration −5.0): −66%
Percent Growth (NCI-H522; NCI-H522, Log10 Concentration −6.0): 80%
Percent Growth (NCI-H522; NCI-H522, Log10 Concentration −7.0): 102%
Percent Growth (NCI-H522; NCI-H522, Log10 Concentration −8.0): 101%
GI50 (SF-295; Homo sapiens, SF-295): 16.6 µM
CC50 (SF-295; Homo sapiens, SF-295, read-out: LC50): 84.2 µM
IC (TGI) (SF-295; Homo sapiens, SF-295, read-out: TGI): 37.4 µM
Percent Growth (SF-295; SF-295, Log10 Concentration −4.0): −61%
Percent Growth (SF-295; SF-295, Log10 Concentration −5.0): 81%
Percent Growth (SF-295; SF-295, Log10 Concentration −6.0): 96%
Percent Growth (SF-295; SF-295, Log10 Concentration −7.0): 91%
Percent Growth (SF-295; SF-295, Log10 Concentration −8.0): 93%

Reference: US9469650B2, “Melampomagnolide B derivatives” (BOARD OF TRUSTEES OF THE UNIVERSITY OF ARKANSAS, priority 2013, dated 2016)
